A word on the CC50: it is the concentration giving 50% cytotoxicity. A lower CC50 goes with harm at low concentration.

Consider 65 compounds from paper PMC6792352, “Limited Chemical Structural Diversity Found to Modulate Thyroid Hormone Receptor in the Tox21 Chemical Library” (Environmental Health Perspectives, 2019).

Structures can show the parent of a compound that is named as a salt.

The nature of this series: in vitro. Conditions: rat, gh3-tre-luc cells.

For the compound `CCc1cc2c(s1)-n1c(C)nnc1CN=C2c1ccccc1Cl` [Etizolam], the CC50 at 24 h (AC50 (uM) modified / 1000, Tox21_110001=Tox21_112931, viability, 1 nM T3 present, 24 h) is more than 50 µM.
With `CCc1ccc(O)cc1` [4-Ethylphenol], where the note is “AC50 (uM) modified / 1000”, the CC50 at 24 h was more than 90 µM.
Still for that read-out and setting: next, `CC(=O)Oc1cccc2c1C(=O)c1c(OC(C)=O)cc(C(=O)O)cc1C2=O` [Diacerein]: more than 50 µM; `COc1cc2nc(N3CCN(C(=O)C4COc5ccccc5O4)CC3)nc(N)c2cc1OC` (stereo not shown) [Doxazosin mesylate]: 25.4 µM; `O=C1OC(=O)C2C3C=CC(C3)C12` (stereo not shown) [2-Norbornene-5,6-dicarboxylic anhydride]: more than 90 µM.
Same read-out and setting: next, `COc1cccc(OC)c1C(=O)N[C@@H]1C(=O)N2[C@@H]1SC(C)(C)[C@@H]2C(=O)O` [Methicillin sodium hydrate]: more than 50 µM; `O=C(O)c1ccccc1C(=O)OCc1ccccc1` [Monobenzyl phthalate]: more than 90 µM; `CCOCCOCCOCCO` [2-[2-(2-Ethoxyethoxy)ethoxy]ethanol]: more than 90 µM.
On the same count and under the same terms, next, `C=CC(C)(O)CCCC(C)CCCC(C)CCCC(C)C` (stereo not shown) [Isophytol]: more than 90 µM; `O=C(O)CC(C(=O)O)S(=O)(=O)O` (stereo not shown) [Sulfosuccinic acid]: more than 90 µM.
Under “AC50 (uM) modified / 1000, Tox21_110001=Tox21_202592, viability, 1 nM T3 present, 24 h”, `Cc1ccc2cc3c(ccc4ccccc43)c3c2c1CC3` [3-Methylcholanthrene] returned a CC50 at 24 h of more than 50 µM.
As for `CCC(=O)O[C@@H]1CC(=O)O[C@H](C)C/C=C/C=C/[C@H](O)[C@H](C)C[C@H](CC=O)[C@H](O[C@@H]2O[C@H](C)[C@@H](O[C@H]3C[C@@](C)(O)[C@@H](OC(=O)CC)[C@H](C)O3)[C@H](N(C)C)[C@H]2O)[C@H]1OC` [Midecamycin], where the note is “AC50 (uM) modified / 1000”, the CC50 at 24 h is more than 20 µM.
In turn, `CCn1c2ccccc2c2cc([N+](=O)[O-])ccc21` [9-Ethyl-3-nitro-9H-carbazole] returned a CC50 at 24 h (AC50 (uM) modified / 1000) of more than 90 µM.
In the case of `CCOC(=O)C1(c2ccccc2)CCN(CCC(C#N)(c2ccccc2)c2ccccc2)CC1` [Diphenoxylate hydrochloride], the CC50 at 24 h was more than 50 µM (AC50 (uM) modified / 1000, Tox21_110001=Tox21_112593, viability, 1 nM T3 present, 24 h) and 19.7 µM (AC50 (uM) modified / 1000, Tox21_110001=Tox21_112825, viability, 1 nM T3 present, 24 h).
Take `CC(=O)c1ccc(S(=O)(=O)NC(=O)NC2CCCCC2)cc1` [Acetohexamide]: for the setting “AC50 (uM) modified / 1000”, the CC50 at 24 h was more than 90 µM.
Still for that read-out and setting: next, `O=C(N[C@H]1N=C(c2ccccc2F)c2cccc3c2N(CC3)C1=O)c1cc2ccccc2[nH]1` [Pranazepide]: more than 50 µM; `CN(C)CCCN1c2ccccc2Sc2ccc(C(F)(F)F)cc21` [Triflupromazine hydrochloride]: 9.02 µM.
The same measure, in the same setting: for `C=C1CC/C=C(\C)CC[C@@H]2[C@@H]1CC2(C)C` [beta-Caryophyllene] the value was more than 90 µM.
The same measure, in the same setting: next, `S=C=Nc1ccc(N=C=S)cc1` [Bitoscanate]: more than 50 µM; `CNC(=O)Nc1ccc(Cl)c(Cl)c1` [N-(3,4-Dichlorophenyl)-N'-methylurea]: more than 90 µM.
As for `NC(=O)C[S+]([O-])C(c1ccccc1)c1ccccc1` (stereo not shown) [Modafinil], the CC50 at 24 h (AC50 (uM) modified / 1000, Tox21_110001=Tox21_111470, viability, 1 nM T3 present, 24 h) was more than 50 µM.
As to `OC[C@H]1OC(O)[C@H](O)[C@@H](O)[C@@H]1O` (stereo partly drawn) [D-Glucose], the CC50 at 24 h (AC50 (uM) modified / 1000) was more than 90 µM.
Still for that read-out and setting: next, `C#CCN(C)CCCOc1ccc(Cl)cc1Cl` [Clorgyline hydrochloride]: 28.1 µM.
As for `CCCC1CCCCN1` (racemic) [dl-Coniine], the CC50 at 24 h (AC50 (uM) modified / 1000, Tox21_110001=Tox21_112688, viability, 1 nM T3 present, 24 h) was more than 50 µM.
For `CC1(C)S[C@@H]2[C@H](NC(=O)[C@H](N)c3ccccc3)C(=O)N2[C@H]1C(=O)OCOC(=O)[C@@H]1N2C(=O)C[C@H]2S(=O)(=O)C1(C)C` [Sultamicillin tosylate], under “AC50 (uM) modified / 1000”, the CC50 at 24 h was more than 50 µM.
Under “AC50 (uM) modified / 1000”, `CC(C)COCC(CN(Cc1ccccc1)c1ccccc1)N1CCCC1` (stereo not shown) [Bepridil] came in with a CC50 at 24 h of 9.16 µM. That is a single-digit micromolar value.
The same measure, in the same setting: for `C=CC[C@]1(O)CC[C@H]2[C@@H]3CCC4=CCCC[C@@H]4[C@H]3CC[C@@]21C` [Allylestrenol] the value was 41.6 µM; for `CC(C)c1ccc2c(c1)CC[C@H]1[C@](C)(CN)CCC[C@]21C` [Dehydroabietylamine acetate], 10.1 µM.
As for `Nc1ncnc2c1ncn2[C@@H]1O[C@H](CO)[C@@H](O)[C@H]1O` [Adenosine], the CC50 at 24 h (AC50 (uM) modified / 1000) is more than 50 µM.
The compound `CC(CC(=O)Cl)CC(C)(C)C` (stereo not shown) [3,5,5-Trimethylhexanoyl chloride] showed a CC50 at 24 h (AC50 (uM) modified / 1000) of more than 90 µM.
Consider `CC(C)=CC1C(C(=O)OCN2C(=O)C3=C(CCCC3)C2=O)C1(C)C` (stereo not shown) [Tetramethrin], for which the CC50 at 24 h is, setting by setting: (AC50 (uM) modified / 1000, Tox21_110001=Tox21_112623, viability, 1 nM T3 present, 24 h) more than 50 µM; (AC50 (uM) modified / 1000, Tox21_110001=Tox21_301017, viability, 1 nM T3 present, 24 h) more than 90 µM.
`CC(C)(C)C(=O)OCOC(=O)[C@@H]1N2C(=O)[C@@H](N=CN3CCCCCC3)[C@H]2SC1(C)C` [Pivmecillinam hydrochloride]: the CC50 at 24 h (AC50 (uM) modified / 1000) was more than 20 µM.
Same read-out and setting: for `CN(C)[C@@H]1C(O)=C(C(N)=O)C(=O)[C@@]2(O)C(O)=C3C(=O)c4c(O)cccc4[C@@](C)(O)[C@H]3[C@H](O)[C@@H]12` [Oxytetracycline hydrochloride] the value was more than 90 µM.
`COc1cc(OC)c(OC)cc1C=O` [2,4,5-Trimethoxybenzaldehyde]: under “AC50 (uM) modified / 1000, Tox21_110001=Tox21_400070, viability, 1 nM T3 present, 24 h”, the half-maximal cytotoxic concentration (CC50) at 24 h was more than 90 µM.
On to `Clc1cc(Cl)c(Cl)c(Cl)c1` [1,2,3,5-Tetrachlorobenzene], for which, where the note is “AC50 (uM) modified / 1000”, the CC50 at 24 h was more than 90 µM.
In turn, `CC(Oc1ccc(Oc2ncc(C(F)(F)F)cc2Cl)cc1)C(=O)O` (stereo not shown) [Haloxyfop] returned a CC50 at 24 h (AC50 (uM) modified / 1000) of more than 90 µM.
Still for that read-out and setting: next, `N=C(N)n1cccn1` [Praxadine hydrochloride]: more than 50 µM; `Cc1ccccc1[N+](=O)[O-]` [2-Nitrotoluene]: more than 90 µM.
Same read-out and setting: next, `CS(=O)(=O)c1ccc([C@@H](O)[C@@H](CF)NC(=O)C(Cl)Cl)cc1` [Florfenicol]: more than 20 µM; `NC1CCCCC1` [Cyclohexylamine hydrochloride]: more than 90 µM.
Where the note is “AC50 (uM) modified / 1000”, `CC(C(=O)O)c1cccc(Oc2ccccc2)c1` (stereo not shown) [Fenoprofen calcium salt dihydrate] gave a CC50 at 24 h of more than 20 µM.
For `CCCCCCCC(=O)OCC(O)CO` (stereo not shown) [Glyceryl monooctanoate], the CC50 at 24 h (AC50 (uM) modified / 1000) was more than 90 µM.
Consider `CCOc1ccc2ccccc2c1C(=O)N[C@@H]1C(=O)N2[C@@H]1SC(C)(C)[C@@H]2C(=O)O` [Nafcillin sodium monohydrate], for which the CC50 at 24 h (AC50 (uM) modified / 1000) is more than 20 µM.
`CO[Si](CCCNCCN)(OC)OC` [N-[3-(Trimethoxysilyl)propyl]ethane-1,2-diamine]: the CC50 at 24 h (AC50 (uM) modified / 1000) was more than 90 µM.
Compound `C[C@]12C=CC(=O)C=C1CC[C@@H]1[C@@H]2CC[C@]2(C)OC(=O)CC[C@@H]12` [Testolactone] registered a CC50 at 24 h (AC50 (uM) modified / 1000, Tox21_110001=Tox21_111576, viability, 1 nM T3 present, 24 h) of more than 50 µM.
Consider `CCC[N+](=O)[O-]` [1-Nitropropane], for which the CC50 at 24 h (AC50 (uM) modified / 1000, Tox21_110001=Tox21_202289, viability, 1 nM T3 present, 24 h) is more than 90 µM.
`CNc1ccc([N+](=O)[O-])cc1` [N-Methyl-4-nitroaniline] displayed a CC50 at 24 h (AC50 (uM) modified / 1000) of 54.8 µM.
Still for that read-out and setting: next, `NNC(=S)NN` [Thiocarbazide]: more than 90 µM; `Nc1c(Cl)c(Cl)nc(C(=O)O)c1Cl` [Picloram]: more than 100 µM.
Same read-out and setting: next, `O=C(OC1CCCCC1)c1ccccc1C(=O)OC1CCCCC1` [Dicyclohexyl phthalate]: 40.2 µM; `COC(=O)c1ccccc1O` [Methyl salicylate]: more than 90 µM; `O=C(O)c1c2ccccc2cc2ccccc12` [9-Anthracenecarboxylic acid]: more than 90 µM.
In turn, `Cc1ccc(C(C)C)c(O)c1` [Thymol] registered a CC50 at 24 h (AC50 (uM) modified / 1000) of more than 90 µM.
The same measure, in the same setting: for `CC(C)(C)c1cc(Cc2cc(C(C)(C)C)c(O)c(C(C)(C)C)c2)cc(C(C)(C)C)c1O` [4,4'-Methylenebis(2,6-di-t-butylphenol)] the value was more than 90 µM.
The same measure, in the same setting: next, `CO[Si](CCCNCCC[Si](OC)(OC)OC)(OC)OC` [3-(Trimethoxysilyl)-N-[3-(trimethoxysilyl)propyl]propan-1-amine]: more than 90 µM; `CN(C/C=C/c1ccccc1)Cc1cccc2ccccc12` [Naftifine hydrochloride]: 25 µM.
Still for that read-out and setting: next, `CN(N=O)c1ccc([N+](=O)[O-])cc1` [N-Nitroso-N-methyl-4-nitroaniline]: more than 90 µM.
Take `CCCCCCC(CO)CCCC` (stereo not shown) [2-Butyloctan-1-ol]: the CC50 at 24 h (AC50 (uM) modified / 1000) is more than 90 µM.
Turning to `CCC1CCC(=O)O1` (stereo not shown) [gamma-Caprolactone], the CC50 at 24 h (AC50 (uM) modified / 1000, Tox21_110001=Tox21_300875, viability, 1 nM T3 present, 24 h) is more than 100 µM.
As to `OCCN(CCO)c1cccc(Cl)c1` [2,2'-(3-Chlorophenylimino)diethanol], the CC50 at 24 h (AC50 (uM) modified / 1000) is more than 90 µM.
Still for that read-out and setting: next, `Oc1ccccc1F` [2-Fluorophenol]: more than 90 µM.
The same measure, in the same setting: next, `CCC(C=O)CC` [2-Ethylbutyraldehyde]: more than 90 µM.
`Cc1cccc(C#N)c1` [3-Methylbenzonitrile] had a CC50 at 24 h (AC50 (uM) modified / 1000, Tox21_110001=Tox21_200853, viability, 1 nM T3 present, 24 h) of more than 90 µM.
In the case of `CC(C)(O)C#CC(C)(C)O` [2,5-Dimethyl-3-hexyne-2,5-diol], the CC50 at 24 h (AC50 (uM) modified / 1000) was more than 90 µM.
For the compound `NC(=O)[C@@H]1CCCN1C(=O)[C@H](Cc1cnc[nH]1)NC(=O)[C@@H]1CCC(=O)N1` [Protirelin], the CC50 at 24 h (AC50 (uM) modified / 1000) was more than 50 µM.
